Source: ChEMBL document CHEMBL5465560, “Selectivity Literature for EUbOPEN Chemogenomic Library” (2024)
Each block holds one molecule with its values, some of them ahead of it.

Experiments:
[1] = molecular target: T1, Serine/threonine-protein kinase TNNI3K (Homo sapiens) (UniProt Q59H18); conditions: at 10 µM
T1 sequence (whole entry): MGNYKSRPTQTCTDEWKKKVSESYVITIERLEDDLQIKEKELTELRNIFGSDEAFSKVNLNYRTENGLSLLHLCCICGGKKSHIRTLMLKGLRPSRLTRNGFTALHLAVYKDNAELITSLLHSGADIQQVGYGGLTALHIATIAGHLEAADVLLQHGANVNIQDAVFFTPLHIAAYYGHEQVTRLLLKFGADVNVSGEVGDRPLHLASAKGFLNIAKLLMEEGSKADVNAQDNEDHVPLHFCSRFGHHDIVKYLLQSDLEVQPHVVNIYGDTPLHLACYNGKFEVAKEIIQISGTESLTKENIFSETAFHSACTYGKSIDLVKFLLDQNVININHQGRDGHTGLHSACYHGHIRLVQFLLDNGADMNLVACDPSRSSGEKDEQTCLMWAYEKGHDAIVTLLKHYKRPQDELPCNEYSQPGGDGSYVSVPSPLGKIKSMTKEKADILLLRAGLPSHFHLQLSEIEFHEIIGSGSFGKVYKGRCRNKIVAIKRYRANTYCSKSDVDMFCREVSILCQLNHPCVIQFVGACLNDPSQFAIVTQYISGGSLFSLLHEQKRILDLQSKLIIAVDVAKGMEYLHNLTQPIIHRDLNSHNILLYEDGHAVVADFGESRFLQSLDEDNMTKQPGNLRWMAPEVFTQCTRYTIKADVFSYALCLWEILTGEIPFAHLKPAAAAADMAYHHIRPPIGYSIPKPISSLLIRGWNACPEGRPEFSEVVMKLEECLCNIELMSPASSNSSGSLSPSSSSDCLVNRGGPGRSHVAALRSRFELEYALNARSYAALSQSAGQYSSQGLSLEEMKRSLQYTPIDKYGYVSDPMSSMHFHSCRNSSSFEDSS

[2] = molecular target: Tyrosine-protein kinase JAK1 (Homo sapiens, UniProt P23458); test: Selectivity interaction (ActivX KiNativ screen (kinase selectivity in THP-1 cell lysates)) EUB0000639a JAK1; type: subcellular; conditions: lysate, at 0.01 µM
[3] = molecular target: T2, Serine/threonine-protein kinase D3 (Homo sapiens) (UniProt O94806); test: Selectivity interaction (Kinase panel (Invitrogen)) EUB0000639a PRKD3; conditions: at 200 nM
T2 sequence (whole entry): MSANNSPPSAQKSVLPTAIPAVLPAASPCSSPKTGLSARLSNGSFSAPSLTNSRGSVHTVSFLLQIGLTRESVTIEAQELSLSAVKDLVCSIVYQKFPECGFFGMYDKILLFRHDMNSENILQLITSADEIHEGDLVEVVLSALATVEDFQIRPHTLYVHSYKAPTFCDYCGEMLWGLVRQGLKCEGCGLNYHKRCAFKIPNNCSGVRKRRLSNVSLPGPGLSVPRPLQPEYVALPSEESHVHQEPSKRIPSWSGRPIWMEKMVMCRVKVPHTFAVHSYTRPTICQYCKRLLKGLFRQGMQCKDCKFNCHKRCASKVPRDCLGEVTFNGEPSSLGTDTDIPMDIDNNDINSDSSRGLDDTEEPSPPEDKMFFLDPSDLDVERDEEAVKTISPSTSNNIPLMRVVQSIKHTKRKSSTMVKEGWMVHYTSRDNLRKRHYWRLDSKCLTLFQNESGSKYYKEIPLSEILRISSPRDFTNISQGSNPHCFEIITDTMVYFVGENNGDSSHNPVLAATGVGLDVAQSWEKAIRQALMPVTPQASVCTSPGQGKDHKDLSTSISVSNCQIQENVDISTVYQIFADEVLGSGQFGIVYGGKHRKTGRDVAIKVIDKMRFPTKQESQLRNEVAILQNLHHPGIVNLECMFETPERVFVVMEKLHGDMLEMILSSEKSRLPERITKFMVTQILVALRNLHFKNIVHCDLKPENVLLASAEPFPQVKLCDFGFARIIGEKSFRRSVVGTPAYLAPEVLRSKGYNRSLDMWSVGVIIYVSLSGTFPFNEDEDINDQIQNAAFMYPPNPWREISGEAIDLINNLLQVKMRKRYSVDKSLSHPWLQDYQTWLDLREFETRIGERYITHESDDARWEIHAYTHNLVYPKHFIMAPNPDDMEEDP

[4] = molecular target: T3, N-lysine methyltransferase KMT5A (Homo sapiens) (UniProt Q9NQR1); test: Selectivity interaction (Transferase panel (protein, RNA, and DNA methyltransferases. and EP300 (acetyltransferase))) EUB0000270b SETD8
T3 sequence (whole entry): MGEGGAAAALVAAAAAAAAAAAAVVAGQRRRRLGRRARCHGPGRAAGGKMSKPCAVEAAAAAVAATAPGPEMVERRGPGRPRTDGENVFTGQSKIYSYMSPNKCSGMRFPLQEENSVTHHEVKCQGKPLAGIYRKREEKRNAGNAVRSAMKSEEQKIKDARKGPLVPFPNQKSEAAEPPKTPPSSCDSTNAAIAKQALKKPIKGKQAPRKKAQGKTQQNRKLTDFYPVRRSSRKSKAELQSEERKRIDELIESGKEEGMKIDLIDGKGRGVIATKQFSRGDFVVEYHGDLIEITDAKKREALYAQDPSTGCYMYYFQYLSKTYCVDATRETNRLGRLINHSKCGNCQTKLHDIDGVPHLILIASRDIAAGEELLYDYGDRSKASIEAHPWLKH

Sequence of Tyrosine-protein kinase JAK1 (P23458 whole entry): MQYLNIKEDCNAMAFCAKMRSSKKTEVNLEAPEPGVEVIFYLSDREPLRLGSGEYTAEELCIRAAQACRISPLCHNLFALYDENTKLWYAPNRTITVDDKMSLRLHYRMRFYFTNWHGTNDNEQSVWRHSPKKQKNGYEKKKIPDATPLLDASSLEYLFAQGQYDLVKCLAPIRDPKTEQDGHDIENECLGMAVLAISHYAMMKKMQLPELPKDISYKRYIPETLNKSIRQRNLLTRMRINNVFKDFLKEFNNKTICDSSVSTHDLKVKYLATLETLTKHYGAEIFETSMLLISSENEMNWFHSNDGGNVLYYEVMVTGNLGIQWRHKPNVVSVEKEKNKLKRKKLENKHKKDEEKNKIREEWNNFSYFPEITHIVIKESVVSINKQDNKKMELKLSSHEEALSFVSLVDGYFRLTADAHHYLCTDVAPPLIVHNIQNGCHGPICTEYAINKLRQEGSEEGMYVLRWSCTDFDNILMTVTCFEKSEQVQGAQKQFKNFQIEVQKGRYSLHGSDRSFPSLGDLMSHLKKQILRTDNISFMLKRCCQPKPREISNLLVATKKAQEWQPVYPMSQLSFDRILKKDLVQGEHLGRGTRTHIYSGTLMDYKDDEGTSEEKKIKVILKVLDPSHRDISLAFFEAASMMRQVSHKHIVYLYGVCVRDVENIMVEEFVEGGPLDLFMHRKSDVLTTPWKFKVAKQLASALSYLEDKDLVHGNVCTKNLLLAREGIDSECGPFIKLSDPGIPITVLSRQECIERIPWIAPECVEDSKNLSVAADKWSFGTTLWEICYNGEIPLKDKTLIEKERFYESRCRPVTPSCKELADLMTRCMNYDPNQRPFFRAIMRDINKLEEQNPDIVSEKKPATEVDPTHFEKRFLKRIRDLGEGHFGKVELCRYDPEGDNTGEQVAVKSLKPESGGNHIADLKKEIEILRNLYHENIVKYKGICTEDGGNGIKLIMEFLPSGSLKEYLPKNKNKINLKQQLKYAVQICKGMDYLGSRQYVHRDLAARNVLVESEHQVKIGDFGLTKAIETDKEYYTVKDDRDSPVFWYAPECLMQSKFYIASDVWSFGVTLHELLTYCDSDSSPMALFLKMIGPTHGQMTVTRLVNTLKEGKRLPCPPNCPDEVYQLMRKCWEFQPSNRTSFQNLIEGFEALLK

SMILES: Cc1cc([C@@H](C)Nc2ccccc2C(=O)O)c2nc(N3CCOCC3)cc(=O)n2c1 [AZD-6482]
% of control [1]: 88%

% of inhibition [2]: -1.9% | % of inhibition [3]: 10.2%
SMILES: CC[C@@H]1[C@H](F)C(=O)N[C@@H]1COc1nccc2cc(C(N)=O)c(OC)cc12 [ZIMLOVISERTIB]

% activity ([4]; at 1 µM): > 90% | % activity ([4]; at 10 µM): > 80%
SMILES: Cc1cc(CN)cc(C)c1-c1ncn(C)c1-c1cncn1C
